According to US7306938B2, “High throughput screen for inhibitors of fatty acid biosynthesis in bacteria” (priority 1999, dated 2007):
Values after ≈ are worked out from the molar mass of the structure shown.

How the values were obtained:
[1] = tested on: PyhfB, PyjaXY, PylpC, and PyydK promoters; assay: RNA (transcriptional) profiling of bacterial cells treated with FAB pathway inhibitors; assay type: cell-based, B. subtilis; conditions: cerulenin 0.5 or 5 μg/ml, triclosan 0.1 or 1 μg/ml; LB medium, 37° C., 10, 30, or 60 minutes
Excerpt: Genetic Constructs: Conventional transcriptional profiling methods can be used to identify promoters that have increased activity in the presence of antibacterial agents such as cerulenin and triclosan, which are inhibitors of FAB.

[2] = tested on: B. subtilis reporter strains PY79(amy::PyhfB::lacZ, cat) and PY79(amy::PylpC::lacZ, cat); assay: Minimum inhibitory concentration (MIC) determination in 96-well microtiter plate, OD600 read; assay type: cell-based; conditions: Bacillus subtilis, 18 h, read-out: minimum inhibitory concentration (MIC)
Protocol: The minimum inhibitory concentrations (MIC) for cerulenin and triclosan were determined for each of the reporter strains. To determine the MIC, a compound of interest (e.g., cerulenin or triclosan) was placed in a 96-well microtiter plate such that the concentration of the compound varies in various wells of the plate (e.g., by using a series of 2-fold dilutions of the compound). Approximately 5,000 cells from a logarithmically-growing culture (e.g., the B. subtilis strain PY79) in Luria broth were added to each well (e.g., in a volume of 50-80 μl). The plate then was incubated at 37° C. for approximately 18 hours. The OD600 was then read to measure cell growth in each well of the plate. The lowest concentration of the compound that leads to complete killing of the culture (i.e., the concentration of compound for which the OD600 nm is equal to a control well that contains only media and the test compound) is deemed the MIC for the particular compound and bacterial strain. The MICs for cerulenin and triclosan were 12.5 μg/ml and 5 μg/ml, respectively, for both of the reporter strains. Such inhibitors can be used as lead compounds, which can subsequently be derivatized using standard medicinal chemistry techniques to produce antibacterial agents.

[3] = tested on: PyhfB promoter; assay: lacZ reporter assay of promoter induction, strain PY79(amy::PyhfB::lacZ, cat); assay type: cell-based, B. subtilis; conditions: various concentrations, 96-well microplate, 3 hours (FIG. 7)
Excerpt: (§1) Clones containing the PyhfB, PyjaXY, and PylpC promoters have been described in GenBank, and the accession numbers for these clones are set forth in Table 2.
(§2) The reporter strains used in these assays were constructed as follows. PCR products containing the promoters were digested with EcoRI and BamHI, and cloned into the multiple cloning site of pDG268, which also had been digested with EcoRI and BamHI. The plasmid pDG268 is a derivative of pGD364 (See, Cutting and Van der Horn, Molecular Biological Methods for Bacillus, eds. C. R. Harwood and S. M. Cutting, 1990, John Wiley and Sons, NY, N.Y., pp. 52-54). […]
(§3) The reporter strains were incubated, separately, with triclosan or cerulenin at various concentrations, as shown on the X-axes depicted in FIGS. 7 and 8. Each strain and an antibacterial agent were incubated in a 96-well microplate for 3 hours. β-galactosidase activity was detected using the Tropix Galacton Star™ chemiluminescent substrate (3-chloro-5-(4-methoxyspiro{1,2-dioxetane-3,2′-(4′chloro)-tricyclo-[3.3.1.1^3,7]decan}-4-yl)phenyl-B-D-galactopyranoside) and the detection method described below. The fold induction of promoter activity was calculated as the level of activity in the samples containing the antibacterial agent divided by the level of activity in the samples that lacked the agent. […]

[4] = tested on: PylpC promoter; assay: lacZ reporter assay of promoter induction, strain PY79(amy::PylpC::lacZ, cat); assay type: cell-based, B. subtilis; conditions: various concentrations, 96-well microplate, 3 hours (FIG. 8)
Excerpt: as §1, §2, §3

Row | Structure (SMILES) | activity of the PyhfB, PyjaXY, PylpC, and PyydK promoters (RNA profiling) [1] | MIC [2] [µg/mL] | activity of the PyhfB promoter (lacZ reporter, β-galactosidase chemiluminescence) [3] | activity of the PylpC promoter (lacZ reporter, β-galactosidase chemiluminescence) [4]
1 | Oc1cc(Cl)ccc1Oc1ccc(Cl)cc1Cl [triclosan] | increase in activity | 5 (≈ 17.3 µM) | increase the activity | increase the activity
2 | C/C=C/C/C=C/CCC(=O)[C@H]1O[C@H]1C(N)=O [cerulenin, 2,3-Epoxy-4-oxo-7,1-dodecadienamide] | increase in activity | 12.5 (≈ 56 µM) | increase the activity | increase the activity
